Data from patent US9745348B2 (The University of Manchester, priority 2011, dated 2017).
Where no end group is shown, it is not given here.

Legend:
[1] = MTT viability of fibroblasts over three days; format: cell-based, human; details: human, adult fibroblasts (HDFa cells)
Protocol: (§1) MTT assay: Cell viability and proliferation is widely assessed by the MTT assay as already described previously.
(§2) The fibroblasts cells, Neonatal (HDFn) and Adult (HDFa), were both grown until greater than 80% confluent. […] After 24 hour incubation the culture medium was replaced with fresh medium containing an appropriate amount of the peptide for investigation.
(§3) The viability of the fibroblasts, Adult (HDFa) and Neonatal (HDFn) cells in the presence of surfactants was tested by MTT assay over three days relative to control wells containing cells only.

[2] = in vitro; format: cell-based; details: human, neonatal fibroblasts (HDFn cells)
Protocol: as §1
The fibroblasts cells, Neonatal (HDFn) and Adult (HDFa), were both grown until greater than 80% confluent. The cells were then harvested and seeded into micro well plate at cell densities of 5000 cells/well in a volume […] of medium. After 24 hour incubation the culture medium was replaced with fresh medium containing an appropriate amount of the peptide for investigation.

[3] = system: HeLa and HL60 cancer cell lines; details: 24 h
Protocol: Antitumor activities of peptides were measured using the 3-(4,5-dimethylthiazol-2-yl)-2,-diphenyl tetrazolium bromide (MTT) assay, and the IC50 value was calculated as the concentration of peptide that induced 50% growth inhibition compared to the untreated control.
HeLa and HL60 cells were seeded in 96-well plates (10^5 cells/well) in a complete medium [Iscove's modified dulbecco's medium (IMDM)] with 10% fetal bovine serum (FBS) for 24 h before peptide treatment. […] Following incubation with peptides, 20 μL of a 5 mg/ml solution MTT reagent was added to each well and incubated for 4 h at 37° C. After removing the supernatant, 150 μL of dimethyl sulfoxide (DMSO) was added to dissolve the formazan crystals that remained in the wells. The absorbance was determined using a microplate ELISA Reader at 570 nm. Wells without cells for blanking the spectrophotometer and the cells without peptides were taken as negative controls.

[4] = system: fibroblasts Adult (HDFa) cells; assay: MTT viability of fibroblasts over three days; format: cell-based, human
Protocol: as §1, §2, §3

“GIIKKIIKKI-NH2 [Helix G2, G(IIKK)2 I-NH2]” gave a viability at 24 h, 5 µM [1] of 101%, a viability at 24 h, 25 µM [1] of 98% and a viability at 24 h, 50 µM [1] of 92%. The viability at 24 h, 100 µM [1] was 91%, the viability at 48 h, 5 µM [1] was 96% and the viability at 48 h, 25 µM [1] was 90%. It also gave a viability at 48 h, 50 µM [1] of 90%, a viability at 48 h, 100 µM [1] of 88% and a viability at 72 h, 5 µM [1] of 95%. For the same substance, the viability at 72 h, 25 µM [1] was 88%, the viability at 72 h, 50 µM [1] was 79% and the viability at 72 h, 100 µM [1] was 80%.

For “GIKKKIIKKIIKII-NH2 [GIK, GIK(KKII)2 KII-NH2]”, the viability at 24 h, 5 µM [1] was 97%, the viability at 24 h, 25 µM [1] was 92% and the viability at 24 h, 50 µM [1] was 87%. The viability at 24 h, 100 µM [1] was 85%, the viability at 48 h, 5 µM [1] was 95% and the viability at 48 h, 25 µM [1] was 93%. For the same substance, the viability at 48 h, 50 µM [1] was 78%, the viability at 48 h, 100 µM [1] was 74% and the viability at 72 h, 5 µM [1] was 91%. It also gave a viability at 72 h, 25 µM [1] of 90%, a viability at 72 h, 50 µM [1] of 73% and a viability at 72 h, 100 µM [1] of 65%. For the same substance, the viability at 24 h, 5 µM [2] was 93%, the viability at 24 h, 25 µM [2] was 98% and the viability at 24 h, 50 µM [2] was 92%. It also gave a viability at 24 h, 100 µM [2] of 85%, a viability at 48 h, 5 µM [2] of 87% and a viability at 48 h, 25 µM [2] of 84%. The viability at 48 h, 50 µM [2] was 81%, the viability at 48 h, 100 µM [2] was 78% and the viability at 72 h, 5 µM [2] was 83%. It also gave a viability at 72 h, 25 µM [2] of 78%, a viability at 72 h, 50 µM [2] of 75% and a viability at 72 h, 100 µM [2] of 71%.

For “GKIKKIIKKIIKII-NH2 [GKI, GKI(KKII)2 KII-NH2]”, the IC50 [3] was 4 to 25 µM, the viability at 24 h, 5 µM [1] was 95% and the viability at 24 h, 25 µM [1] was 93%. It also gave a viability at 24 h, 50 µM [1] of 90%, a viability at 24 h, 100 µM [1] of 85% and a viability at 48 h, 5 µM [1] of 82%. The viability at 48 h, 25 µM [1] was 81%, the viability at 48 h, 50 µM [1] was 80% and the viability at 48 h, 100 µM [1] was 75%. The viability at 72 h, 5 µM [1] was 81%, the viability at 72 h, 25 µM [1] was 75% and the viability at 72 h, 50 µM [1] was 71%. The viability at 72 h, 100 µM [1] was 70%, the viability at 24 h, 5 µM [2] was 95% and the viability at 24 h, 25 µM [2] was 87%. The viability at 24 h, 50 µM [2] was 81%, the viability at 24 h, 100 µM [2] was 69% and the viability at 48 h, 5 µM [2] was 90%. It also gave a viability at 48 h, 25 µM [2] of 83%, a viability at 48 h, 50 µM [2] of 75% and a viability at 48 h, 100 µM [2] of 60%. For the same substance, the viability at 72 h, 5 µM [2] was 88%, the viability at 72 h, 25 µM [2] was 78% and the viability at 72 h, 50 µM [2] was 71%. For the same substance, the viability at 72 h, 100 µM [2] was 55%.

In the case of GLLKKLLKKLLKKL-NH2 [GL, G(LLKK)3 L-NH2], the viability at 24 h, 5 µM [1] is reported as 91%, the viability at 24 h, 25 µM [1] is reported as 90% and the viability at 24 h, 50 µM [1] is reported as 87%. The viability at 24 h, 100 µM [1] was 63%, the viability at 48 h, 5 µM [1] was 90% and the viability at 48 h, 25 µM [1] was 88%. The viability at 48 h, 50 µM [1] was 75%, the viability at 48 h, 100 µM [1] was 57% and the viability at 72 h, 5 µM [1] was 87%. The viability at 72 h, 25 µM [1] was 74%, the viability at 72 h, 50 µM [1] was 46% and the viability at 72 h, 100 µM [1] was 11%. It also gave a viability at 24 h, 5 µM [2] of 98%, a viability at 24 h, 25 µM [2] of 88% and a viability at 24 h, 50 µM [2] of 85%. The viability at 24 h, 100 µM [2] was 80%, the viability at 48 h, 5 µM [2] was 87% and the viability at 48 h, 25 µM [2] was 84%. It also gave a viability at 48 h, 50 µM [2] of 74%, a viability at 48 h, 100 µM [2] of 65% and a viability at 72 h, 5 µM [2] of 83%. The viability at 72 h, 25 µM [2] was 81%, the viability at 72 h, 50 µM [2] was 67% and the viability at 72 h, 100 µM [2] was 35%.

For cocamide ethanolamines [CMEA], the “MTT results (relative MTT reading)” value [4] was 0.00.
